Results published in patent publication US8853264B2, “Use of lignan compounds for treating or preventing inflammatory disease” (Newtree Industry Co., Ltd., priority 2005, dated 2014).

What was measured:
[1] = system: edemas of the rat ears induced by TPA; assay: TPA-induced rat ear edema inhibition test; assay type: in vivo, Wistar rats; details: for Edema thickness: topical in acetone 30 min after TPA, measured after 8 hours
Method: The anti-inflammatory activity of the lignan compound isolated and purified in <Example 1> was tested in animal models. The anti-inflammatory activity was measured by edema inhibition test on rats. As the test animals, 5-week-old Wistar rats (DaeHan Biolink Co., Ltd, Korea) were used. The animals were provided with standard pellet forming rat feed (Cheiljedang Corporation, Korea) and given freely to feed and water. Also, the animals were housed in conditions of 12-hr light/12-hr dark cycle, temperature of 25±2° C. and humidity of 60±10%. Inflammation inducing agent TPA (12-O-tetradecanoylphorbol-13-acetate; Sigma) was dissolved in acetone to a concentration of 200 μg/mL. The edemas of the rat ears were induced by applying the TPA solution locally to each of the outer and inner faces of the ear in an amount of 10 μl/ear (4 μg/ear). The macelignan purified in <Example 1> and non-steroidal anti-inflammatory drug indomethacin as a control substance were dissolved in acetone and used in amounts of 20, 200 and 2000 μg/ear. Each of the macelignan and the indomethacin was applied locally to the rat ears at 30 minutes after treatment with TPA. A control group was locally applied with acetone. The thickness of the rat ears was measured with a caliper 8 hours after treatment with each of the substances. An increase in the ear thickness in the group treated with the sample was compared to that of the group untreated with the sample, and inflammation inhibitory effect was measured by calculating percent edema inhibition.

[2] = Skin barrier recovery test (TEWL, skin hydration, erythema index), atopic dermatitis model; assay type: in vivo, NC/Nga mice
Method: 8-week-old NC/Nga mice (20-25 g) were purchased from Chungang Lab. Animal. After adapting for 1 week, the NC/Nga mouse was anesthetized with 90% ethyl ether (Ducsan, Korea) and hair was removed from the occipital region and the back of the mouse using depilatory cream (Reckitt Benckiser, France). After allowing micro wound healing for a day, 100 mg of mite antigen cream (Biostir, Inc. Japan) comprising Dermatophagoides farina, which causes atopic dermatitis, as a main ingredient was evenly applied on the ear, occipital region and back, 3 times a week (for 5 weeks, from week 9 to week 13). 2 hours before application of the mite antigen cream, 4% SDS solution was applied at the same area to increase transdermal absorption of the mite antigen cream by inducing the breakdown of skin fats and cuticle layer. From week 3 following the application, IgE value was measured to quantitate the degree of atopic dermatitis. Also during the drug treatment period (week 12 to week 13), 100 mg of the mite antigen cream was applied 3 times a week to prevent spontaneous healing of the atopic dermatitis.
In order to induce atopic dermatitis, 100 mg of mite antigen cream was applied on the ear, occipital region and back of NC/Nga mouse (9 to 11 weeks old), except for the negative control group, 3 times a week, 2 hours after the application of 4% SDS solution. Three weeks later, it was observed whether atopic dermatitis was induced by checking skin rash, erythema, cornification, or the like. Atopic dermatitis was induced in all groups except for the negative control group. For drug treatment and evaluation of therapeutic effect, mice were grouped into 12 groups, 6 oral administration groups and 6 topical application groups (each consisting of negative control group, positive control group, macelignan low conc. group, macelignan high conc. group, nutmeg extract low conc. group, and nutmeg extract high conc. group), with n=5 per cage. During the following drug treatment and evaluation period of 2 weeks (12 to 13 weeks old), the negative control groups, which had not been treated with 4% SDS solution and mite antigen cream, were treated with physiological saline (oral administration group) or base cream (topical application group) every day, and the positive control groups, which had been treated with 100 mg of mite antigen cream 2 hours after application of 4% SDS solution, 3 times every week, were treated with physiological saline (oral administration group) or base cream (topical application group). The oral administration groups were treated with 100 mg of mite antigen cream 2 hours after application of 4% SDS solution, 3 times every week, and were treated with macelignan or nutmeg extract at low concentration (50 mg/kg/day) or high concentration (150 mg/kg/day) every day. The topical application groups were treated with 100 mg of mite antigen cream 2 hours after application of 4% SDS solution, 3 times every week, and were treated with macelignan cream or nutmeg extract cream at low concentration (20 mg/kg/day) or high concentration (60 mg/kg/day) every day. Transepidermal water loss (TEWL), skin hydration and erythema index were measured one day before the end of the test. Serum was obtained by retro-orbital blood sampling. After the end of the test (14 weeks old) spleen and skin tissues from occipital region and back were sampled and stored at −70° C. ALN (axillary lymph node) was stored in DMEM containing 2% FBS (fetal bovine serum). The skin tissues were stored in 10% formalin solution.
One day before the end of the experiment, TEWL, skin hydration and erythema index were measured to quantitatively compare recovery of skin barrier. TEWL was measured with a tewameter (TM300), skin hydration with a corneometer (CM825), and erythema index with a mexameter (MX18).

NO = NO production in RAW264.7 cells activated with LPS (Griess); assay type: cell-based
Method: RAW264.7 cells were diluted at a concentration of 1×10^6 cell/ml and then inoculated into RPMI 1640 medium. After 5 hours, the inventive macelignan was added to the medium at each of a concentration of 1-20 μM, followed by incubation for 2 hours. Then, the medium was treated with LPS (10 μg/ml) and incubated for 24 hours. A control group was treated only with LPS. The production of NO was quantified by measuring NO2^−, a reaction product of NO, using the remains of cell culture (Han et al., Life Sci., 75(6): 675-684, 2004). 100 μl of the remains of cell culture and the same volume of Greiss reagent (0.5% sulfanilyamide, 0.05% N-(1-naphthyl)ethylene diamine dihydrochloride/2.5% H3PO4) were mixed with each other on a 96-well tissue culture plate and allowed to react in a dark place for 10 minutes. Then, the absorbance of the sample was measured at 550 nm using the ELISA microplate reader. […] All tests were repeated at three times, and then quantified by student's t-test.

[3] = Toxicity in oral administration to rats; details: rat, in vivo, read-out: 50% lethality (LD50)
Method: The inventive lignan compound was tested for toxicity in oral administration to rats, and as a result, it was observed that the 50% lethality (LD50) was more than 2,000 mg/kg.

[4] = oral administration 50 mg/kg/day
[5] = oral administration 150 mg/kg/day
[6] = oral administration 50 and 150 mg/kg, p<0.01
[7] = topical application 20 mg/kg/day
[8] = topical application 60 mg/kg/day
[9] = topical application 20 and 60 mg/kg, p<0.01

## COc1cc(C[C@H](C)[C@H](C)Cc2ccc3c(c2)OCO3)ccc1O (single isomer, unassigned) [macelignan]
[1]; dose 20 μg/ear
  Edema inhibition: 36.7%
  Edema thickness: 157 ± 9 μm
[1]; dose 200 μg/ear
  Edema inhibition: 60.5%
  Edema thickness: 98 ± 6 μm
[1]; dose 2000 μg/ear
  Edema inhibition: 79.0%
  Edema thickness: 52 ± 4 μm
[1]; local application on rat ears
  percent edema inhibition compared with indomethacin: higher than that of currently commercially available anti-inflammatory drug indomethacin
  rat edema induced by TPA (result in words): inhibited the formation of edema in a concentration-dependent manner
[2]; [4]
  Erythema Index: 198.5 ± 46.8
  Skin Hydration: 5.0 ± 0.8 AU
  TEWL: 17.6 ± 8.1 g/hr · m^2
[2]; [5]
  Erythema Index: 190 ± 24.4
  Skin Hydration: 6.4 ± 2.8 AU
  TEWL: 21.5 ± 9.2 g/hr · m^2
[2]; oral administration 50 and 150 mg/kg
  skin hydration compared to the positive control group: effect of increasing skin hydration
[2]; [6]
  TEWL compared to the positive control group: statistically significant effect of suppressing TEWL
  erythema index compared to the positive control group: statistically significant effect of decreasing erythema index
[2]; [7]
  Erythema Index: 163.3 ± 4.0
  Skin Hydration: 12.4 ± 3.9 AU
  TEWL: 25.8 ± 3.1 g/hr · m^2
[2]; [8]
  Erythema Index: 190 ± 24
  Skin Hydration: 13.4 ± 4.7 AU
  TEWL: 26.2 ± 4.9 g/hr · m^2
[2]; [9]
  TEWL compared to the positive control group: statistically significant effect of suppressing TEWL
  erythema index compared to the positive control group: statistically significant effect of decreasing erythema index
  skin hydration compared to the positive control group: statistically significant effect of increasing skin hydration
NO; 1 μM and 5 μM, P<0.01
  inhibition of NO production at low concentrations: excellent effects on the inhibition of NO production
NO; 20 μM macelignan
  production of NO at 20 μM: inhibited to an extent almost similar to that of the group treated with nothing
NO; 1-20 μM, LPS 10 μg/ml, 24 hours
  production of NO: concentration-dependently inhibited
[3]
  LD50: > 2000 mg/kg
